Test results from patent US8809270B2, “Method for reducing cardiovascular morbidity and mortality in prediaetic patients and patients with type 2 diabetes” (priority 2003, dated 2014).
“Also recorded” adds a separate entry of the source.

Key:
[1] = test system: individuals with IGT, IFG, or mild untreated type 2 diabetes; test: Study HOE901/1021: adverse events and hypoglycemia; format: in vivo, human
Protocol: The study was conducted at three centers in the US. After screening tests, including fasting plasma glucose (FPG) and post prandial plasma glucose (PPG; two hours following a 75 g oral glucose load) for classification as IGT, IFG, diabetic, or normal glucose tolerance (NGT), and after satisfying other inclusion criteria including the ability to perform moderate exercise on a stationary bicycle, subjects were admitted to an inpatient study center. They were confined there for the next 15 days, during which time they were randomly assigned to receive either HOE901 once per day subcutaneously in the evening, or matching placebo (saline) injections in a 3:1 randomization (HOE901:placebo). Baseline assessments included a 5-point (before each meal, bedtime, and 3 AM) and 8-point (5-point plus readings 2 hours after each meal) blood glucose profile on separate days, and 15 minutes of exercise on a stationary bicycle at a level of exertion of “somewhat hard” on the Borg scale with blood glucose values monitored during and for 3 hours following the exercise. Each subject received a 25 kCal/kg diet while confined in the study center. Capillary whole blood glucose values were recorded on HemoCue devices. Episodes of hypoglycemia (blood glucose 50 mg/dL [2.8 mM] or symptoms with blood glucose 65 mg/dL [3.6 mM]) were recorded.
Treatment-emergent adverse events (TEAEs) occurred in 10 subjects in the HOE901 group (16 events) vs. 2 in the placebo group (5 events). Each event occurred in only 1 individual except for headache, which occurred in 3 HOE901 subjects. Only 2 HOE901 subjects and 1 placebo subject had events that were considered by investigators as possibly related to study drug. The HOE901 events were 2 episodes of headache, and one of hypoglycemia. The two headaches occurred in subjects who had hypoglycemic events on the same days and at approximately the same time as the headaches. […] Subject 3011 (who reported dizziness as an adverse event during screening) was removed from the study by the sponsor prior to receiving any study drug dose because of hypoglycemia that occurred during screening.
Only mild hypoglycemia occurred in 4 out of 16 subjects treated with HOE901 in this study. These hypoglycemic events generally occurred before lunch or supper, and resolved promptly with oral caloric intake. No episodes of hypoglycemia occurred in relation to exercise. Although the calorie-restricted diet subjects consumed during this study doubtless played a role in the occurrence of these events, the diet was typical in size for what is recommended to these frequently overweight individuals. […] Hypoglycemia can occur, but is manageable not related to exercise, and detectable with the aid of home glucose monitoring.

[2] = test system: US/Canada type 2 diabetic patients; test: Treat-to-Target study: hypoglycemia, bedtime LANTUS vs. NPH insulin; format: in vivo, human; conditions: single bedtime dose
Protocol: The ideal basal insulin might be expected to be less worrisome from this standpoint because the circulating insulin produced would target blood glucose elevations throughout the day rather than mealtime fluctuations. […] The “Treat-to-Target” study ^38 in US/Canada type 2 diabetic patients investigated whether a single bedtime dose of Lantus® LANTUS (insulin glargine) vs. NPH insulin (a moderate- to long-acting insulin with a pronounced peak in plasma activity for 4 to 8 hours after injection)^39 would achieve target metabolic control without increasing nocturnal hypoglycemia.
Insulin has features that make it especially useful in the patient with pronounced diabetic dyslipidemia, as compared to the oral antidiabetic agents usually used as initial pharmacotherapy. […] NPH insulin despite having a prolonged duration of action, has a pronounced peak effect from 3-6 hours after injection, rendering it less suitable in the management of the patient with milder diabetes due to the risk for hypoglycemia.

[3] = test system: type 2 diabetic patients already treated with other oral antidiabetic drugs; test: Study 4014: lipid data, LANTUS versus rosiglitazone; format: in vivo, human; parameters: Triglycerides % reduction from baseline / Triglycerides % reduction from baseline, LANTUS-AVANDIA / Non-HDL Cholesterol Total % reduction from baseline: concentration or dose not given beside the values; Triglycerides Baseline / Triglycerides Endpoint: unit not given beside the values; conditions: for Triglycerides % reduction from baseline, LANTUS-AVANDIA / Triglycerides change at endpoint, LANTUS-AVANDIA: LANTUS minus AVANDIA
[4] = in vivo; cited from earlier work

Substance: insulin glargine [LANTUS]
- Treatment-emergent adverse events (TEAEs), events ([1]; in vivo): 16 events
- Treatment-emergent adverse events (TEAEs), subjects ([1]; in vivo): 10 subjects
- headache ([1]; in vivo): 3 subjects
- safety and tolerability ([1]; in vivo): safe and well tolerated
- serious adverse events ([1]; in vivo): no serious adverse events
- subjects with events considered by investigators as possibly related to study drug ([1]; in vivo): 2 subjects
- mild hypoglycemia ([1]; out of 16 subjects treated): 4 subjects
- hypoglycemia vs. NPH [2]: significant reductions in nocturnal hypoglycemia; also recorded: significant advantages over NPH in hypoglycemia
- HDL Baseline ([3]; TG baseline range 200-500): 38
- HDL Endpoint ([3]; TG baseline range 200-500): 40
- LDL Baseline ([3]; TG baseline range 200-500): 115
- LDL Endpoint ([3]; TG baseline range 200-500): 111
- Non-HDL Cholesterol Total Baseline ([3]; TG baseline range 200-500): 168
- Non-HDL Cholesterol Total Endpoint ([3]; TG baseline range 200-500): 152
- Triglycerides % reduction from baseline ([3]; TG baseline range 200-500): 18%
- Triglycerides Baseline ([3]; TG baseline range 200-500): 285
- Triglycerides Endpoint ([3]; TG baseline range 200-500): 234
- Triglycerides % reduction from baseline, LANTUS-AVANDIA ([3]; TG baseline range 200-500): 18%
- Triglycerides change at endpoint, LANTUS-AVANDIA ([3]; TG baseline range 200-500): 47.7
- HDL Baseline ([3]; TG baseline range 300-500): 32
- HDL Endpoint ([3]; TG baseline range 300-500): 34
- Non-HDL Cholesterol Total % reduction from baseline ([3]; TG baseline range 300-500): 4%
- Non-HDL Cholesterol Total Baseline ([3]; TG baseline range 300-500): 156
- Non-HDL Cholesterol Total Endpoint ([3]; TG baseline range 300-500): 150
- Triglycerides % reduction from baseline ([3]; TG baseline range 300-500): 27%
- Triglycerides Baseline ([3]; TG baseline range 300-500): 380
- Triglycerides Endpoint ([3]; TG baseline range 300-500): 277
- Triglycerides % reduction from baseline, LANTUS-AVANDIA ([3]; TG baseline range 300-500): 18%
- Triglycerides change at endpoint, LANTUS-AVANDIA ([3]; TG baseline range 300-500): 68.5
- HDL Baseline ([3]; TG baseline range 500-1000): 28
- HDL Endpoint ([3]; TG baseline range 500-1000): 29
- Non-HDL Cholesterol Total Baseline ([3]; TG baseline range 500-1000): 178
- Non-HDL Cholesterol Total Endpoint ([3]; TG baseline range 500-1000): 153
- Triglycerides Baseline ([3]; TG baseline range 500-1000): 817
- Triglycerides Endpoint ([3]; TG baseline range 500-1000): 494
- duration of action [4]: up to 24 hour
